Assay results from US20230339886A1 (University of Florida Research Foundation, Incorporated, priority 2020, published 2023).
Read-outs that look alike come from different tables or passages of the source.

Target: T1, REV-ERBα LBD (human; residues 281-614 Δ324-422) (Homo sapiens, UniProt P20393, DEL324-422)
T1 construct: 6×Histag-REV-ERBα LBD (human; residues 281-614 Δ324-422); made in house; host or cells: Escherichia coli
Experiment: TR-FRET corepressor interaction assay (REV-ERBα LBD, FITC-SMRT peptide)
Assay type: biochemical
Protocol: TR-FRET corepressor interaction assay. The time-resolved fluorescence resonance energy transfer (TR-FRET) assay was performed in black low-volume 384-well plates (Greiner). […] Ligand stocks were prepared via serial dilution in DMSO, added to wells in triplicate, and plates were incubated at 4° C. for 2 h and read using a BioTek Synergy Neo multimode plate reader. The Tb donor was excited at 340 nm; its fluorescence emission was monitored at 495 nm, and the acceptor FITC emission was measured at 520 nm; and the TR-FRET ratio was calculated as the signal at 520 nm divided by the signal at 495 nm. Data were plotted using GraphPad Prism as TR-FRET ratio vs. ligand concentration and fit to sigmoidal dose response curve equation.

[1] = Table 2, read-out: REVERBα agonism (EC50 class, FRET assay)
[2] = FITC-SMRT peptide, read-out: REVERBα agonism (EC50 class, FRET assay)

T1 sequence (P20393 with tags, fused parts or gaps DEL324-422): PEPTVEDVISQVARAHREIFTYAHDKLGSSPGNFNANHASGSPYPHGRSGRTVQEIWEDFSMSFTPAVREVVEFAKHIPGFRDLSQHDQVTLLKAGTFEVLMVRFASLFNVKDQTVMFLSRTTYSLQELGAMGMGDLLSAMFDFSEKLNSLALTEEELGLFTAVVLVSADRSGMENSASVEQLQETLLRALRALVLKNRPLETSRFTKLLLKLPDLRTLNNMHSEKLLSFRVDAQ
T1 sequence (Q9Y618 2335-2356 partner limits assumed): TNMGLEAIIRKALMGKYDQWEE

SMILES | EC50 [1] | EC50 [2]
CCn1cc(CCNS(=O)(=O)N(C)C)c2ccc(-c3ccncc3)cc21 [Example 132, N′-{2-[6-(pyridin-4-yl)-1-ethyl-1H-indol-3-yl]ethyl}-N,N-dimethylsulfuric diamide] | > 3000 nM | 
CC(C)Cn1cc(C(C)CNS(=O)(=O)N(C)C)c2ccc(-c3ccccc3)cc21 (centres unmarked) [Compound 255] | 500 to 3000 nM | 
CN(C)C(=O)n1cc(CCNS(=O)(=O)N(C)C)c2ccc(-c3ccncc3)cc21 [Example 194, 3-(2-((N,N-dimethylsulfamoyl)amino)ethyl)-N,N-dimethyl-6-(pyridin-4-yl)-1H-indole-1-carboxamide] | > 3000 nM | 
CC(C)(C)Cn1cc([C@H](NS(=O)(=O)C2CCC2)C(F)F)c2ccc(-c3ccccc3C(F)(F)F)cc21 [Example 513, (S)—N-(2,2-difluoro-1-(1-neopentyl-6-(2-(trifluoromethyl)phenyl)-1H-indol-3-yl)ethyl)cyclobutanesulfonamide] |  | < 500 nM
[2H][C@](NS(=O)(=O)C1CC1)(c1cn(CC(C)(C)C)c2cc(-c3ccccc3C(F)(F)F)ccc12)C(F)F [Example 550, (S)—N-(2,2-difluoro-1-(1-neopentyl-6-(2-(trifluoromethyl)phenyl)-1H-indol-3-yl)ethyl-1-d)cyclopropanesulfonamide] |  | < 500 nM
CC(C)Cn1cc(CCNS(=O)(=O)N(C)C)c2ccc(-c3cc(F)cc(F)c3)cc21 [Example 54, N-{2-[6-(3,5-difluorophenyl)-1-(2-methylpropyl)-1H-indol-3-yl]ethyl}-N,N-dimethyl-sulfuric diamide] | 500 to 3000 nM | 
CC(C)(C)Cn1cc(CCNS(=O)(=O)C2CC2)c2ccc(-c3ccc(C(F)(F)F)cc3C#N)cc21 [Example 400, N-(2-(6-(2-cyano-4-(trifluoromethyl)phenyl)-1-neopentyl-1H-indol-3-yl)ethyl)cyclopropanesulfonamide] | < 500 nM | 
CC(C)Cn1cc(CCNS(=O)(=O)N(C)C)c2cc(-c3ccncc3)ccc21 [Compound 232] | > 3000 nM | 
CC(C)(C)Cc1cn(CCNS(=O)(=O)C2CC2)c2ccc(-c3cccc4ccccc34)cc12 [Example 209, N-(2-(5-(naphthalen-1-yl)-3-neopentyl-1H-indol-1-yl)ethyl)cyclopropane-sulfonamide] | < 500 nM | 
CC(C)Cn1cc([C@H]2C[C@H]2NS(=O)(=O)C(C)C)c2ccc(Br)cc21 [Compound 257] | 500 to 3000 nM | 
CC(C)S(=O)(=O)NCCc1cn(CC(C)(C)C)c2cc(-c3ccncc3Cl)c(F)cc12 [Compound 290] | < 500 nM | 
CC(C)(C)Cn1cc([C@H](NS(=O)(=O)C2CCOC2)C(F)(F)F)c2cc(F)c(-c3ccccc3C(F)(F)F)cc21 (stereo partly drawn) [Example 461, N—((S)-2,2,2-trifluoro-1-(5-fluoro-1-neopentyl-6-(2-(trifluoromethyl)phenyl)-1H-indol-3-yl)ethyl)tetrahydrofuran-3-sulfonamide] |  | > 3000 nM
CC(C)Cn1cc(CCNS(=O)(=O)N(C)C)c2ccc(-c3cnoc3)cc21 [Compound 65, dimethyl({2-[1-(2-methylpropyl)-6-(1,2-oxazol-4-yl)-1H-indol-3-yl]ethyl}sulfamoyl)amine] | 500 to 3000 nM | 
CC(C)(C)Cn1cc(CCNS(=O)(=O)C2CC2)c2ccc(-c3ccc(C(F)(F)F)cc3Cl)cc21 [Example 396, N-(2-(6-(2-chloro-4-(trifluoromethyl)phenyl)-1-neopentyl-1H-indol-3-yl)ethyl)cyclopropanesulfonamide] | < 500 nM | 
CC(NS(=O)(=O)C1CCC1)c1cn(CC2CCCC2)c2cc(-c3ccccc3C(F)(F)F)ccc12 (centres unmarked) [Example 510, N-(1-(1-(cyclopentylmethyl)-6-(2-(trifluoromethyl)phenyl)-1H-indol-3-yl)ethyl)cyclobutanesulfonamide] |  | < 500 nM
CC(C)(C)Cn1cc([C@H](NS(=O)(=O)C2CCC2)C(F)(F)F)c2ccc(C3CC3)cc21 [Example 501, (S)—N-(1-(6-cyclopropyl-1-neopentyl-1H-indol-3-yl)-2,2,2-trifluoroethyl)cyclobutanesulfonamide] |  | < 500 nM
CC(C)Cn1cc(CC(C)N(C)S(=O)(=O)C(C)C)c2ccc(-c3ccncc3)cc21 (centres unmarked) [Compound 276] | < 500 nM | 
CC(C)S(=O)(=O)NCCn1cc(CC(C)(C)C)c2cc(Br)ccc21 [Example 171, N-(2-(5-bromo-3-neopentyl-1H-indol-1-yl)ethyl)propane-2-sulfonamide] | 500 to 3000 nM | 
CC(C)Cn1cc(C(CS(C)(=O)=O)C(F)(F)F)c2ccc(-c3ccccc3C(F)(F)F)cc21 (centres unmarked) [Example 407, 1-isobutyl-3-(1,1,1-trifluoro-3-(methylsulfonyl)propan-2-yl)-6-(2-(trifluoromethyl)phenyl)-1H-indole] | > 3000 nM | 

SMILES | EC50 [1] | EC50 [2]
CC(C)(C)Cn1cc([C@H](NS(=O)(=O)C2CC2)C(F)(F)F)c2ccc(-c3c(F)cccc3C#N)cc21 [Example 460, (S)—N-(1-(6-(2-cyano-6-fluorophenyl)-1-neopentyl-1H-indol-3-yl)-2,2,2-trifluoroethyl)cyclopropanesulfonamide] |  | < 500 nM
COc1cccc(Cn2cc(CCNS(=O)(=O)N(C)C)c3ccc(-c4ccncc4)cc32)c1 [Example 147, N-{2-[6-(pyridin-4-yl)-1-(3-methoxybenzyl)-1H-indol-3-yl]ethyl}-N,N-dimethylsulfuric diamide] | 500 to 3000 nM | 
Cc1cc(-c2ccncc2)cc2c1c(CCNS(=O)(=O)N(C)C)cn2CC(C)C [Example 202, dimethyl({2-[4-methyl-1-(2-methylpropyl)-6-(pyridin-4-yl)-1H-indol-3-yl]ethyl}sulfamoyl)amine] | > 3000 nM | 
CC(C)Cn1cc(-c2cccc(NS(=O)(=O)C(C)C)c2)c2ccc(-c3ccccc3)cc21 [Example 83, N-(3-(1-isobutyl-6-phenyl-1H-indol-3-yl)phenyl)propane-2-sulfonamide] | > 3000 nM | 
CC(C)(C)Cc1cn(CCNS(=O)(=O)C2CC2)c2ccc(-c3nccc4ccccc34)cc12 [Example 215, N-(2-(5-(isoquinolin-1-yl)-3-neopentyl-1H-indol-1-yl)ethyl)cyclopropane-sulfonamide] | > 3000 nM | 
CN(C)S(=O)(=O)NCCc1cn(CCC(F)(F)F)c2cc(-c3ccncc3)ccc12 [Example 179, dimethyl({2-[6-(pyridin-4-yl)-1-(3,3,3-trifluoropropyl)-1H-indol-3-yl]ethyl}sulfamoyl)amine] | < 500 nM | 
CC(C)Cn1cc([C@H](NS(=O)(=O)N(C)C)C(F)(F)F)c2cc(F)c(-c3ccccc3Cl)cc21 [Example 326, {[(1S)-1-[6-(2-chlorophenyl)-5-fluoro-1-(2-methylpropyl)-1H-indol-3-yl]-2,2,2-trifluoroethyl]sulfamoyl}dimethylamine] | < 500 nM | 
CC(C)Cn1cc(CC(=O)NS(=O)(=O)N(C)C)c2ccc(-c3ccncc3)cc21 [Compound 234] | > 3000 nM | 
CCN(CCc1cn(CC)c2cc(-c3ccncc3)ccc12)S(=O)(=O)N(C)C [Example 133, N′-{2-[6-(pyridin-4-yl)-1-ethyl-1H-indol-3-yl]ethyl}-N′-ethyl-N,N-dimethylsulfuric diamide] | 500 to 3000 nM | 
CNC(=O)Cn1cc(CCNS(=O)(=O)N(C)C)c2ccc(Br)cc21 [Example 166, 2-(6-bromo-3-(2-((N,N-dimethylsulfamoyl)amino)ethyl)-1H-indol-1-yl)-N-methylacetamide] | 500 to 3000 nM | 
CC(C)(C)Cn1cc(CCNS(=O)(=O)C2CC2)c2cc(F)c(-c3ccncc3Cl)cc21 [Compound 288] | < 500 nM | 
CC(C)(C)Cc1cn(CCNS(=O)(=O)C2CC2)c2ccc(-c3ccccc3)cc12 [Example 225, N-(2-(3-neopentyl-5-phenyl-1H-indol-1-yl)ethyl)cyclopropanesulfonamide] | 500 to 3000 nM | 
CN(C)S(=O)(=O)NCCc1cn(Cc2cccc(I)c2)c2cc(-c3ccncc3)ccc12 [Example 145, N-{2-[6-(pyridin-4-yl)-1-(3-iodobenzyl)-1H-indol-3-yl]ethyl}-N,N-dimethylsulfuric diamide] | > 3000 nM | 
CC(C)(C)Cn1cc([C@H](NS(=O)(=O)C2CC2)C(F)(F)F)c2cc(F)c(-c3ccccc3C(F)(F)F)nc21 [Example 524, (S)—N-(2,2,2-trifluoro-1-(5-fluoro-1-neopentyl-6-(2-(trifluoromethyl)phenyl)-1H-pyrrolo[2,3-b]pyridin-3-yl)ethyl)cyclopropanesulfonamide] |  | < 500 nM
CC(C)(C)Cc1cn(CCNS(=O)(=O)C2CC2)c2cc(F)c(Br)cc12 [Example 293, N-(2-(5-bromo-6-fluoro-3-neopentyl-1H-indol-1-yl)ethyl)cyclopropanesulfonamide] | > 3000 nM | 
CC(C)Cn1cc(CNS(=O)(=O)C(C)C)c2cc(F)c(-c3ccccc3)cc21 [Compound 266] | < 500 nM | 
CC(C)Cn1cc(CCNS(=O)(=O)N(C)C)c2ccc(-n3ccnc3)cc21 [Example 93, N-{2-[6-(1H-imidazol-1-yl)-1-(2-methylpropyl)-1H-indol-3-yl]ethyl}-N,N-dimethylsulfuric diamide] | 500 to 3000 nM | 
CN(C)S(=O)(=O)NCCc1cn(C)c2cc(-c3ccncc3)ccc12 [Example 128, N′-{2-[6-(pyridin-4-yl)-1-methyl-1H-indol-3-yl]ethyl}-N,N-dimethylsulfuric diamide] | 500 to 3000 nM | 
CC(C)(C)Cn1cc([C@H](NS(=O)(=O)C2CCC2)C(F)(F)F)c2ccc(C3CCCC3)cc21 [Example 506, (S)—N-(1-(6-cyclopentyl-1-neopentyl-1H-indol-3-yl)-2,2,2-trifluoroethyl)cyclobutanesulfonamide] |  | < 500 nM
